Columns and labels:
[1] = target: T1, human La antigen (Homo sapiens, UniProt P05455); experiment: ALARM NMR; assay type: binding; settings: for ALARM NMR reactivity: 200 μM test compounds, absence of DTT, prevented by 20 mM DTT; for La protein conformation in ALARM NMR: without the inclusion of DTT
T1 sequence (P05455 100-324): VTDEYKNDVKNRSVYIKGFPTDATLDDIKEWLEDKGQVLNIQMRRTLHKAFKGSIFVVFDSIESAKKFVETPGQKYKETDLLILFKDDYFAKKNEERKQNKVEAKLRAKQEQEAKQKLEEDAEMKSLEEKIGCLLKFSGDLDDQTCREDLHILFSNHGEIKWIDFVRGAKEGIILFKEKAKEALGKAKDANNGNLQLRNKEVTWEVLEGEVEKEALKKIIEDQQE

[2] = Stability in HTS buffer by UPLC–MS; assay type: physicochemical; settings: HTS buffer pH 8.0, UPLC–MS
[3] = target: T2, yeast Rtt109–Vps75 (Saccharomyces cerevisiae, UniProt Q07794); experiment: [3H]-acetyl-CoA HAT assay, Rtt109; assay type: biochemical; settings: 1 mM DTT; results similar versus Rtt109-Vps75, p300, and Gcn5
T2 sequence (Q07794 1-436): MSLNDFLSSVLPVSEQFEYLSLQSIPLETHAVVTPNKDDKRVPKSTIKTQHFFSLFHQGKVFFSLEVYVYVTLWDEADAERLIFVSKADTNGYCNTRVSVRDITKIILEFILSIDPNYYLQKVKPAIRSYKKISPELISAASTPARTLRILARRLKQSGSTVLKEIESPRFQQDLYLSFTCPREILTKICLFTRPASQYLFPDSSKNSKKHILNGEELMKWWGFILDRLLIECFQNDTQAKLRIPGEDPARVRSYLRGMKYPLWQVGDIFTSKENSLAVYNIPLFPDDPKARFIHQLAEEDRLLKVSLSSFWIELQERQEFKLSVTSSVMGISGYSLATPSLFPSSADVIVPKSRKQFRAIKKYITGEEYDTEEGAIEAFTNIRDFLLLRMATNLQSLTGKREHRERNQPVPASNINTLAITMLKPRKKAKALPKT
T2 sequence (P53853 1-264 partner): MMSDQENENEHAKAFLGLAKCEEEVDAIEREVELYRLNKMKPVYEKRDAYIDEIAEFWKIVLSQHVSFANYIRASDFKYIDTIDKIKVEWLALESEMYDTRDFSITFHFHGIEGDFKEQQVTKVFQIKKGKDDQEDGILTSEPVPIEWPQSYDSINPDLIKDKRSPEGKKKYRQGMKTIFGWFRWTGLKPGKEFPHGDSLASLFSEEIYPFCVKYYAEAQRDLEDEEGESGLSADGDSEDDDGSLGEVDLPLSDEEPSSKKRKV

[4] = target: T3, yeast Vps75 (Saccharomyces cerevisiae, UniProt P53853); experiment: Protein mass spectrometry; assay type: binding; settings: 100 μM compound, 10 μM protein, 30 °C, 60 min; LC–MS/MS
T3 sequence (P53853 1-264): T2 sequence (P53853 1-264 partner)
T3 sequence (Q07794 1-436 partner): T2 sequence (Q07794 1-436)

[5] = target: T4, yeast Rtt109 (Saccharomyces cerevisiae, UniProt Q07794); experiment: Protein mass spectrometry; assay type: binding; settings: 100 μM compound, 10 μM protein, 30 °C, 60 min; LC–MS/MS
T4 sequence (Q07794 1-436): T2 sequence (Q07794 1-436)
T4 sequence (P53853 1-264 partner): T2 sequence (P53853 1-264 partner)

| ALARM NMR reactivity [1] | (+) DTT IC50 effect [3] | Compound | further results |
| --- | --- | --- | --- |
| covalently modify cysteines | – | CNc1nc(-c2ccccc2)[n+](-c2ccccc2)s1.[Cl-] [3a] | – |
| covalently modify cysteines | increase | O=C(O)CCSc1cc(NS(=O)(=O)c2ccc(Br)cc2)c2ccccc2c1O [6a] | La protein conformation in ALARM NMR [1]: strongly perturbed; Peptide adduct detected, Vps75 [4]: forms a detectable adduct with mono-oxidized C21 |
| covalently modify cysteines | – | O=S(=O)(Nc1cc(Sc2ncn[nH]2)c(O)c2ccccc12)c1ccc2ccccc2c1 [6b] | La protein conformation in ALARM NMR [1]: strongly perturbed |
| covalently modify cysteines | increase | O=C1CC(Sc2nnc(-c3ccccc3O)o2)C(=O)N1c1ccc(Br)cc1 (stereo not shown) [4a] | stability in HTS buffer [2]: thiol leaving groups (e.g., 4a″) were detected |
| – | increase | O=C(O)CSc1cc(NS(=O)(=O)c2ccc(Br)cc2)c2ccccc2c1O [6y] | – |
| – | increase | O=C(O)CSc1cc(NS(=O)(=O)c2ccc(C(=O)O)cc2)c2ccccc2c1O [6c] | – |
| – | increase | O=S(=O)(Nc1cc(Cl)c(O)c2ccccc12)c1ccc(Br)cc1 [6e] | – |

Second part, the compound before the results:

| Compound | ALARM NMR reactivity [1] | (+) DTT IC50 effect [3] | further results |
| --- | --- | --- | --- |
| O=[N+]([O-])c1cc(Br)c2nsnc2c1Sc1ncnc2[nH]cnc12 [2a] | covalently modify cysteines | increase | stability in HTS buffer [2]: stable |
| CCN(CC)c1ccc2c(C)c(-c3ccc(N4C(=O)C=CC4=O)cc3)c(=O)oc2c1 [CPM, N-[4-(7-diethylamino-4-methylcoumarin-3-yl)phenyl]maleimide, reference compound] | – | increase | – |
| O=[N+]([O-])c1c(Sc2nnnn2-c2ccccc2)cc(Cl)c2nonc12 [2e] | – | increase | – |
| OC(Cn1cncn1)(Cn1cncn1)c1ccc(F)cc1F [fluconazole, reference compound] | – | none | – |
| O=C(O)c1ccc(-n2nnnc2SC2=CS(=O)(=O)c3ccccc32)cc1 [1a] | covalently modify cysteines | increase | Peptide adduct detected, Rtt109 [5]: forms a detectable adduct with C94 |
